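How tested: cells in 96-well plates exposed to compound for 48 hours at five concentrations. TGI: total growth inhibition.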
Legend:
Test in all cases: NCI-60 cell line screen, 48 h
[1] = tested on: BT-549 breast
[2] = tested on: CAKI-1 renal
[3] = tested on: HCC-2998 colon
[4] = tested on: HCT-15 colon
[5] = tested on: HL-60(TB) leukemia
[6] = tested on: MCF7 breast
[7] = tested on: NCI/ADR-RES ovarian
[8] = tested on: PC-3 prostate
[9] = tested on: RXF 393 renal
[10] = tested on: SF-539 CNS
[11] = tested on: SNB-19 CNS
[12] = tested on: T-47D breast

In the case of `O=P1(Cc2ccccc2)N(Cc2ccccc2)[C@@H]2CCCC[C@H]2N1Cc1ccccc1`, the TGI [1] is reported as 33.8 µM, the TGI [2] is reported as 23.7 µM and the TGI [3] is reported as 22 µM. For the same molecule, the TGI [4] was 23.8 µM, the TGI [5] was 19.8 µM and the TGI [6] was 23.3 µM. The TGI [7] was 23 µM, the TGI [8] was 15.3 µM and the TGI [9] was 26.9 µM. It also gave a TGI [10] of 33.8 µM, a TGI [11] of 24.2 µM and a TGI [12] of 24.3 µM.
